Our source for the glass transition temperature values is the PolyMetriX glass transition set.

Turning to `*C(=O)Nc1c(C)cc(Cc2cc(C)c(NC(=O)c3ccc4c(c3)C(=O)N(c3ccc(/N=N/c5ccc(F)cc5)c(N5C(=O)c6ccc(*)cc6C5=O)c3)C4=O)c(C)c2)cc1C` (repeat unit), the glass transition temperature turned out to be 279.00 °C.

In turn, `*C(=O)Nc1c(CC)cc(Cc2cc(CC)c(NC(=O)c3ccc4c(c3)C(=O)N(c3ccc(/N=N/c5ccc(C)cc5)c(N5C(=O)c6ccc(*)cc6C5=O)c3)C4=O)c(CC)c2)cc1CC` (repeat unit) displayed a glass transition temperature of 269.00 °C. The same measure for `*C(=O)OCCN(CCOC(=O)c1ccc2c(c1)C(=O)N(c1c(C)cc(Cc3cc(C)c(N4C(=O)c5ccc(*)cc5C4=O)c(C)c3)cc1C)C2=O)c1ccc(/N=N/c2ccc([N+](=O)[O-])cc2C#N)cc1` (repeat unit): 216.00 °C; for `*C(=O)OCCN(CCOC(=O)c1ccc2c(c1)C(=O)N(c1c(C)cc(Cc3cc(C)c(N4C(=O)c5ccc(*)cc5C4=O)c(C)c3)cc1C)C2=O)c1ccc(/N=N/c2ccc([N+](=O)[O-])cc2[N+](=O)[O-])cc1` (repeat unit): 176.00 °C; for `*C(=O)c1ccc2c(c1)C(=O)N(c1ccc(Cc3ccc(N4C(=O)c5ccc(*)cc5C4=O)c(C(C)(C)C)c3)cc1C(C)(C)C)C2=O` (repeat unit): 213.00 °C. Regarding `*C(=O)c1ccc2c(c1)C(=O)N(c1ccc(OCC(C)(C)COc3ccc(N4C(=O)c5ccc(*)cc5C4=O)cc3)cc1)C2=O` (repeat unit), the glass transition temperature amounted to 234.00 °C. The same measure for `*C(=O)c1ccc2c(c1)C(=O)N(c1ccc(Oc3c(C)cc(Cc4cc(C)c(Oc5ccc(N6C(=O)c7ccc(*)cc7C6=O)cc5)c(C)c4)cc3C)cc1)C2=O` (repeat unit): 303.00 °C; for `*CC(=O)NCCCCCCNC(=O)CS*` (repeat unit): -7.00 °C; for `*CC(=O)Nc1ccc(Cc2ccc(NC(=O)COc3ccc4ccccc4c3Sc3c(O*)ccc4ccccc34)cc2)cc1` (repeat unit): 241.00 °C.

For the compound `*CC(=O)Nc1cccc(NC(=O)COc2ccc3ccccc3c2Sc2c(O*)ccc3ccccc23)c1` (repeat unit), the glass transition temperature was 254.00 °C. The same measure for `*CC(COc1ccc(O*)cc1)OC(C)=O` (repeat unit): 49.00 °C; for `*CC(F)(F)C(F)(F)C(F)(F)COC(=O)c1cccc(C(=O)O*)c1OCCCCC` (repeat unit): 17.00 °C. The same measure for `*CC(O)COc1ccc(O*)cc1` (repeat unit): 60.00 °C; for `*CC(O)COc1cccc(O*)c1` (repeat unit): 65.00 °C; for `*CCCCCCCCCCCCCCCCCCNC(=O)Cc1ccc(CC(=O)N*)cc1` (repeat unit): 78.00 °C. Turning to `*CCCCCCCCCCCOC(=O)c1cc(OCCCCCCCCCCOc2ccc(/N=N/c3ccc(OC)cc3)cc2)cc(C(=O)OCCCCCCCCCCCOc2ccc(-c3ccc(O*)cc3)cc2)c1` (repeat unit), the glass transition temperature came out at 53.00 °C. The same measure for `*CCCCCCOC(=O)C(CCCCCCCCCCP(=O)(OCC)OCC)C(=O)OCCCCCCOc1ccc(-n2on2-c2ccc(O*)cc2)cc1` (repeat unit): 9.00 °C; for `*CCCCCCOC(=O)C(CCCCCCP(=O)(OCC)OCC)C(=O)OCCCCCCOc1ccc(-n2on2-c2ccc(O*)cc2)cc1` (repeat unit): 9.00 °C.

On to `*CCCCCCOC(=O)C(CCCCCP(=O)(OCC)OCC)C(=O)OCCCCCCOc1ccc(-n2on2-c2ccc(O*)cc2)cc1` (repeat unit), for which the glass transition temperature is 7.00 °C. With `*CCSCc1ccc(Cc2ccc(CSCCOC(=O)CSCc3ccc(Cc4ccc(CSCC(=O)O*)cc4)cc3)cc2)cc1` (repeat unit) the figure was 14.00 °C; with `*C[Si](*)(C)CCCOCCOCCOC` (repeat unit), -73.30 °C.

Regarding `*C[Si](*)(C)c1ccccc1` (repeat unit), the glass transition temperature worked out at 28.00 °C.

As for `*C[Si](*)(CCCC)CCCC` (repeat unit), the glass transition temperature was -30.00 °C.

Consider `*C[Si](*)(CCCCC)CCCCC` (repeat unit), for which the glass transition temperature was -55.00 °C. With `*Cc1cc(C(C)(C)C)cc(*)c1O` (repeat unit) the figure was 50.00 °C; with `*Cc1cc2cc(C(=O)Nc3ccc(S(=O)(=O)c4ccc(NC(=O)c5cc6cc(*)c(OC(=O)COc7ccc8ccc(=O)oc8c7)cc6oc5=O)cc4)cc3)c(=O)oc2cc1OC(=O)COc1ccc2ccc(=O)oc2c1` (repeat unit), 233.00 °C.

Take `*Cc1ccc(CSS*)cc1` (repeat unit): the glass transition temperature stood at 23.00 °C. `*Cc1ccc(CSSSS*)cc1` (repeat unit) yielded a glass transition temperature of 3.00 °C. In turn, `*Cc1cccc(C[n+]2ccc(-c3cc[n+](*)cc3)cc2)c1` (repeat unit) registered a glass transition temperature of 128.00 °C. The same measure for `*Nc1ccc(CC(C)(C)NC(=O)CCC(*)=O)cc1` (repeat unit): 158.00 °C; for `*Nc1ccc(CC(C)(C)NC(=O)CCCCCCCCC(*)=O)cc1` (repeat unit): 92.00 °C. The same measure for `*OC(COC(=O)c1ccc(C(*)=O)c(OC)c1)COc1ccc(/N=N/c2ccc(C#N)cc2)cc1` (repeat unit): 120.00 °C; for `*OC(F)(F)COC(=O)c1cc(OCCCCC)cc(C(=O)OCC(*)(F)F)c1` (repeat unit): 14.00 °C.

Turning to `*Oc1ccc(CC(NC(=O)CCc2ccc(OC(=O)CCC(*)=O)cc2)C(=O)OCC)cc1` (repeat unit), the glass transition temperature was determined as 78.00 °C.

Turning to `*Oc1ccc(CC(NC(=O)CCc2ccc(OC(=O)CCC(*)=O)cc2)C(=O)OCCCCCCCC)cc1` (repeat unit), the glass transition temperature amounted to 48.00 °C. The same measure for `*Oc1ccc(CC(NC(=O)CCc2ccc(OC(=O)CCC(*)=O)cc2)C(=O)OCCCCCCCCCCCC)cc1` (repeat unit): 40.00 °C; for `*Oc1ccc(CC(NC(=O)CCc2ccc(OC(=O)CCCC(*)=O)cc2)C(=O)OCCCC)cc1` (repeat unit): 56.00 °C. With `*Oc1ccc(CC(NC(=O)CCc2ccc(OC(=O)CCCC(*)=O)cc2)C(=O)OCCCCCCCCCCCC)cc1` (repeat unit) the figure was 27.50 °C; with `*Oc1ccc(CC(NC(=O)CCc2ccc(OC(=O)CCCCC(*)=O)cc2)C(=O)OC(C)C)cc1` (repeat unit), 56.50 °C; with `*Oc1ccc(CC(NC(=O)Cc2ccc(OC(=O)CC(C)CCC(*)=O)cc2)C(=O)OCCCCCC)cc1` (repeat unit), 38.00 °C. With `*Oc1ccc(CC(NC(=O)Cc2ccc(OC(=O)CCC(*)=O)cc2)C(=O)OCCCCCC)cc1` (repeat unit) the figure was 59.00 °C. In turn, `*Oc1ccc(CC(NC(=O)Cc2ccc(OC(=O)CCCC(*)=O)cc2)C(=O)OCCCCCC)cc1` (repeat unit) registered a glass transition temperature of 42.00 °C.

As for `*Oc1ccc(CC(NC(=O)Cc2ccc(OC(=O)CCCCC(*)=O)cc2)C(=O)OCC)cc1` (repeat unit), the glass transition temperature was 63.00 °C. With `*c1c(C)cc(-c2cc(C)c(N3C(=O)c4ccc(Oc5c(C)cc(Cc6cc(C)c(Oc7ccc8c(c7)C(=O)N(*)C8=O)c(C)c6)cc5C)cc4C3=O)c(C)c2)cc1C` (repeat unit) the figure was 420.00 °C; with `*c1c(C)cc(C)c(N2C(=O)c3cccc(Oc4c(C)cc(Cc5cc(C)c(Oc6cccc7c6C(=O)N(*)C7=O)c(C)c5)cc4C)c3C2=O)c1C` (repeat unit), 287.00 °C; with `*c1c(C)cc(Cc2cc(C)c(N3C(=O)c4ccc(Oc5cc6ccccc6cc5Oc5ccc6c(c5)C(=O)N(*)C6=O)cc4C3=O)c(C)c2)cc1C` (repeat unit), 265.00 °C. With `*c1c(C)cc(Cc2cc(C)c(N3C(=O)c4ccc(Oc5cccc6c(Oc7ccc8c(c7)C(=O)N(*)C8=O)cccc56)cc4C3=O)c(C)c2)cc1C` (repeat unit) the figure was 281.00 °C. With `*c1ccc(CC(=O)Nc2ccc(-c3ccc(NC(=O)Cc4ccc(-c5sc(*)c(-c6ccccc6)c5-c5ccccc5)cc4)cc3)cc2)cc1` (repeat unit) the figure was 272.00 °C; with `*c1ccc(CC(=O)Nc2ccc(NC(=O)Cc3ccc(-c4sc(*)c(-c5ccccc5)c4-c4ccccc4)cc3)cc2)cc1` (repeat unit), 251.00 °C; with `*c1ccc(CC(=O)Nc2ccc(S(=O)(=O)c3ccc(NC(=O)Cc4ccc(-c5sc(*)c(-c6ccccc6)c5-c5ccccc5)cc4)cc3)cc2)cc1` (repeat unit), 252.00 °C.

In the case of `*c1ccc(Cc2ccc(N3C(=O)c4ccc(Oc5ccc(Oc6ccc7c(c6)C(=O)N(*)C7=O)cc5)cc4C3=O)c(OC)c2)cc1OC` (repeat unit), the glass transition temperature was 269.00 °C.

The compound `*c1ccc(Cc2ccc(N3C(=O)c4ccc(Oc5ccc6c(c5)C(=O)N(*)C6=O)cc4C3=O)c(C(C)(C)C)c2)cc1C(C)(C)C` (repeat unit) gave a glass transition temperature of 216.00 °C.

Turning to `*c1ccc(Oc2c(C)cc(Cc3cc(C)c(Oc4ccc(-n5c(=O)c6cc7c(=O)n(*)c(=O)c7cc6c5=O)cc4)c(C)c3)cc2C)cc1` (repeat unit), the glass transition temperature is 299.50 °C.

The compound `*c1ccc(Oc2ccc(N3C(=O)c4cccc(Oc5c(C)cc(Cc6cc(C)c(Oc7cccc8c7C(=O)N(*)C8=O)c(C)c6)cc5C)c4C3=O)cc2)cc1` (repeat unit) displayed a glass transition temperature of 270.00 °C. The same measure for `*c1ccc2c(c1)C(=O)N(c1c(CC)cc(Cc3cc(CC)c(N4C(=O)c5ccc(C(*)(C(F)(F)F)C(F)(F)F)cc5C4=O)c(CC)c3)cc1CC)C2=O` (repeat unit): 266.00 °C; for `*c1ccc2c(c1)C(=O)N(c1ccc(OC(C)COc3ccc(N4C(=O)c5ccc(C(*)(C(F)(F)F)C(F)(F)F)cc5C4=O)cc3)cc1)C2=O` (repeat unit): 234.00 °C; for `*c1ccc2c(c1)C(=O)N(c1ccc(OC(CCC)COc3ccc(N4C(=O)c5ccc(C(*)(C(F)(F)F)C(F)(F)F)cc5C4=O)cc3)cc1)C2=O` (repeat unit): 204.00 °C.
